Reference: patent US20260070924A1, “INDAZOLE MACROCYCLES AND THEIR USE” (BLOSSOMHILL THERAPEUTICS, INC., priority 2022, published 2026)

Tests used:
CLK1 = CLK1 (Homo sapiens (Human), UniProt P49759); experiment: CLK kinase activity assay (ADP-Glo); format: biochemical
Experimental: (§1) Kinase protein and substrate were pre-diluted in the HEPES assay buffer (100 mM HEPES, pH 7.5, 0.01% Triton X-100, 0.1% BSA, 5 mM MgCl2, 1 mM DTT, 10 μM Sodium Orthovanadate, 10 μM Beta-Glycerophosphate) dispensed into 384 well plate (5 μL per well). Control samples (0%-inhibition in the absence of inhibitor, DMSO only) and 100%-inhibition (in the absence of enzyme) were assembled in replicates of six and were used to calculate %-inhibition in the presence of compounds. Test compounds were added to the protein samples by acoustic dispensing (Labcyte Echo550). Concentration of DMSO was equalized to 1% in all samples. Reactions were initiated by addition of ATP by acoustic dispensing (Labcyte Echo550) and incubated according to assay specific incubation time. After incubation, 5 uL of Promega ADP-Glo reagent was added and incubated for 40 minutes. After 40 minutes, 10 uL of Promega kinase detection reagent was added. After 10 min of incubation with Kinase detection reagent, the luminescence was read on microplate reader (Biotek Synergy).

CLK4 = CLK4 (Homo sapiens (Human), UniProt Q9HAZ1); experiment: CLK kinase activity assay (ADP-Glo); format: biochemical
Experimental: as §1

CLK2 = CLK2 (Homo sapiens (Human), UniProt P49760); experiment: CLK kinase activity assay (ADP-Glo); format: biochemical
Experimental: as §1

CLK3 = CLK3 (Homo sapiens (Human), UniProt P49761); experiment: CLK kinase activity assay (ADP-Glo); format: biochemical
Experimental: as §1

FLT3 = FLT3 (Homo sapiens (Human), UniProt P36888); experiment: HotSpot radiometric kinase assay (Reaction Biology); format: biochemical
BaF3 = experiment: Cell proliferation panel (CellTiter-Glo 2.0, 5 days); format: cell-based; details: murine IL-3 dependent pro-B cell line, with 1 ng/mL mouse IL-3
Description: (§2) Ba/F3 cells were purchased from DSMZ. The FLT3-ITD gene was synthesized at GenScript and cloned into pCDH-CMV-MCS-EF1-Puro plasmid (System Biosciences, Inc). FLT3-ITD/D835V and FLT3-ITD/F691L cDNA clones were made at GenScript by PCR and confirmed by sequence. Ba/F3 FLT3-ITD, FLT3-ITD/D835V and FLT3-ITD/F691L cell lines were generated by infecting Ba/F3 cells with lentivirus containing FLT3-ITD, FLT3-ITD/D835V or FLT3-ITD/F691L genes. Stable cell lines were selected by puromycin treatment, followed by IL-3 withdrawal.
(§3) Cell proliferation assay was carried out in a panel of 108 cell lines. 1000 (attached cells) or 3000 (suspension cells) cells/100 μl per well were seeded in 96 well black plate with a clear bottom (Corning #3904). Compounds were added using Tecan D300e Digital Dispenser in 1:3 titration for 9 doses. Plates were incubated for 5 days at 37° C. and 5% CO2. Cell proliferation was measured using CellTiter-Glo 2.0 luciferase-based ATP detection assay (Promega, Madison, WI) at 50 μl per well following the manufacturer's protocol. Plates were then read on a TECAN Sparks multimode microplate reader. Data was analyzed using GraphPad Prism 9 (GraphPad Software, San Diego, CA) to obtain IC50 values. IC50 values were determined using Prism software (GraphPad Software, San Diego, CA).

BaF3 FLT3-ITD = experiment: as above; format: cell-based; details: murine pro-B cell line expressing FLT3-ITD
Description: as §2, §3

BaF3 FLT3-ITD/F691L = experiment: as above; format: cell-based; details: murine pro-B cell line expressing FLT3-ITD/F691L
Description: as §2, §3

BaF3 FLT3-ITD/D835V = experiment: as above; format: cell-based; details: murine pro-B cell line expressing FLT3-ITD/D835V
Description: as §2, §3

[1] = tested on: BCLAF1 exon10-12/exon 10-11; experiment: Alternative splicing ratio by qPCR in MOLM-13; format: cell-based; details: DMSO = 1.00
Experimental: Alternative splicing ratio of RNA transcripts was measured by qPCR in MV-4-11 and MOLM-13 cell lines. Cells were plated in 24 well plates at 1 million cells per well and then treated with compounds at different concentrations, with DMSO only as control. After 8-hour-incubation, cells were harvested and washed once with ice-cold PBS, and lysed in RNA lysis buffer (Invitrogen). Total RNA was extracted using the RNA Purification Kit (Invitrogen). 2 μg of RNA was used for cDNA synthesis using cDNA synthesis kit (ThermoFisher) and 20 ng of cDNA was used for qPCR using PROFLEX 96-Well PCR System (ThermoFisher).
Primers with the following sequences were used for the measurement: • BCLAF1 exon10-12/exon 10-11 (TaqMan, IDT)

[2] = tested on: Phospho-p44/42 MAPK (Erk1/2) (T202/Y204); experiment: Inhibition of kinase phosphorylation by Western Blot in MV-4-11; format: cell-based; details: MV-4-11 cells, 4 hour-incubation; read-out: pERK MV-4-11 IC50
Experimental: Inhibition of kinase phosphorylation assay was performed by Western Blot using MV-4-11 and MOLM13 cell lines. Cells were plated in 24 well plates at 1 million cells per well and then treated with compounds at different concentrations, starting at 100 nM, 1:4 titration with DMSO as control. After 4 hour-incubation, cells were washed once with ice-cold PBS, and lysed in RIPA lysis buffer with protease and phosphatase inhibitors. The cell lysates were then sonicated and spun down, and 40 μg of proteins were separated by sodium dodecyl sulfate electrophoresis on a 4 to 12% Bis-Tris polyacrylamide gel and transferred onto nitrocellulose membranes using Bio-Rad Trans-Blot Turbo Transfer System (Bio-Rad). Blocking was performed using 3% BSA or 5% Non-fat dry milk (Fisher Scientific) in TBST (Tris-buffered saline containing 0.05% of Tween 20) (Bio-Rad Laboratories, Inc.). The membranes were incubated overnight with anti-phospho-FLT3 (Y589/Y591) (CST #60413), anti-phospho-STAT5 (Y694) (CST #4322), anti-Phospho-p44/42 MAPK (Erk1/2) (T202/Y204) (CST #9101), anti-Phospho-S6 Ribosomal Protein (S235/236) (CST #4858) and anti-β-Actin (CST #8457) each diluted 1000 times in 3% BSA in TBST. Membranes were washed with TBST and then incubated at room temperature for 1 hour with HRP-labeled anti-rabbit IgG polyclonal antibody (CST #7074) diluted 1000 times in 3% BSA. After TBST washing, blots were developed with a chemiluminescence system (SuperSignal West Femto Maximum Sensitivity Substrate, Pierce #34095). Luminescence was detected by LI-COR Odyssey M imaging system and luminescence intensity were quantified using Empiria Studio 2.2 software. Data was analyzed using GraphPad Prism 9 (GraphPad Software, San Diego, CA) to obtain IC50 values.

Sequence of CLK4 (Q9HAZ1 whole entry): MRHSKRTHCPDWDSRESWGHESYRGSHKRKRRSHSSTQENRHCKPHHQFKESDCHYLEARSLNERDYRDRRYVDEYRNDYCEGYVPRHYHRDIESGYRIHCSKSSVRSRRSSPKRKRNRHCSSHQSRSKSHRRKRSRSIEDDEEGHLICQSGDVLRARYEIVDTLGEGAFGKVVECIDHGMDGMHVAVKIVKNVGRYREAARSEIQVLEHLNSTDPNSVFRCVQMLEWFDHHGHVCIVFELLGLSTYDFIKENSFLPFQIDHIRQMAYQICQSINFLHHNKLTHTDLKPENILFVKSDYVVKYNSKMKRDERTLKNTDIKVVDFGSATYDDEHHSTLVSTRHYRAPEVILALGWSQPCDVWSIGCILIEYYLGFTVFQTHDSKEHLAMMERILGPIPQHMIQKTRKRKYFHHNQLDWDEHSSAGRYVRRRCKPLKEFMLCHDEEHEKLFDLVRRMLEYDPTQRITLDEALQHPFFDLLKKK
Sequence of FLT3 (P36888 27-993): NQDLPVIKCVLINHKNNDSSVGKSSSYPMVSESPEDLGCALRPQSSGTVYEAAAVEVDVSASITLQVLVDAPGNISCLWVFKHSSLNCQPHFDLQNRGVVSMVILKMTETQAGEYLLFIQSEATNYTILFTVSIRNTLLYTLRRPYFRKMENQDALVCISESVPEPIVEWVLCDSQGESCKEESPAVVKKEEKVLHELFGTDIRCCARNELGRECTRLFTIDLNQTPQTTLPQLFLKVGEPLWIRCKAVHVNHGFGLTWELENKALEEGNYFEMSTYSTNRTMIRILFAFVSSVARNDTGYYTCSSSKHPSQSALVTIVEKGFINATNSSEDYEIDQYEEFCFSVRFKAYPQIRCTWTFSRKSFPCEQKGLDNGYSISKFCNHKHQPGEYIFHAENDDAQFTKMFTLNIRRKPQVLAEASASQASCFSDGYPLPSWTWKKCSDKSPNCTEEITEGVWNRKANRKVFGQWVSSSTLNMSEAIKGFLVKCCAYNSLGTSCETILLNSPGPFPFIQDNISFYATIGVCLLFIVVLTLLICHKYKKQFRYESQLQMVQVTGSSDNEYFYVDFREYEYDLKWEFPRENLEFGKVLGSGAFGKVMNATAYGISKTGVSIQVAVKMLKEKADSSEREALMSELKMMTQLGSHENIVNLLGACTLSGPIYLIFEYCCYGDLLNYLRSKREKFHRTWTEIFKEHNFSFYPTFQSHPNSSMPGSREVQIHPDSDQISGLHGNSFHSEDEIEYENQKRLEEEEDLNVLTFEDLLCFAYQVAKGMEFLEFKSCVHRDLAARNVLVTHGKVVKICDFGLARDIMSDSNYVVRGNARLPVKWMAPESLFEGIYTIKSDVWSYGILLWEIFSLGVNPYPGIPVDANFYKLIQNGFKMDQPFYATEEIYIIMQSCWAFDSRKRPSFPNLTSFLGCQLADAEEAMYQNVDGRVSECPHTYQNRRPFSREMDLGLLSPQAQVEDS
Sequence of CLK2 (P49760 whole entry): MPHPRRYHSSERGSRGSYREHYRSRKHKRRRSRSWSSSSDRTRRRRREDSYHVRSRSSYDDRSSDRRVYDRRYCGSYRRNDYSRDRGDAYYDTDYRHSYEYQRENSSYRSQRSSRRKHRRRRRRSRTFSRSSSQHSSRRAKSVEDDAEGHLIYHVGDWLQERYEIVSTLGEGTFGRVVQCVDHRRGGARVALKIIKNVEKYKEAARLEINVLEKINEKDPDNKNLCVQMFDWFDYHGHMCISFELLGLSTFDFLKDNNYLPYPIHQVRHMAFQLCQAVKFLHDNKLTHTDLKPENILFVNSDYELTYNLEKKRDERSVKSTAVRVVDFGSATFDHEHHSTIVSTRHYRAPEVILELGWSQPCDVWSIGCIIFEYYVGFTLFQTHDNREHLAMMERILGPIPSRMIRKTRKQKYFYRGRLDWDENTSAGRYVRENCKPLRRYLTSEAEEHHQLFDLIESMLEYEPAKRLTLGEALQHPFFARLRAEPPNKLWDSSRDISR
Sequence of CLK1 (P49759 whole entry): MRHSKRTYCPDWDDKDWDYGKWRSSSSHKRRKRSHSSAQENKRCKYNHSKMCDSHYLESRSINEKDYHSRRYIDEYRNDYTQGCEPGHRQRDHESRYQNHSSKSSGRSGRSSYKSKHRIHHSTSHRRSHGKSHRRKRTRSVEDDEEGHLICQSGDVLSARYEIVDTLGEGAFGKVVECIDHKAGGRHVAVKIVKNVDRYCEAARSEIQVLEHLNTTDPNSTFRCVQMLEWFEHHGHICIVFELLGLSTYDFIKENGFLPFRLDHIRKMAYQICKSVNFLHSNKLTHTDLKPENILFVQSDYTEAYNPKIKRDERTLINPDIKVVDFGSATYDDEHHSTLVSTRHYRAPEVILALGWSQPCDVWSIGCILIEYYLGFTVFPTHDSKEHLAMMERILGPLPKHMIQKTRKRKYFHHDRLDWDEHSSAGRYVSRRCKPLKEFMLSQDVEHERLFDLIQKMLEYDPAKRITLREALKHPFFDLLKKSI
Sequence of CLK3 (P49761 whole entry): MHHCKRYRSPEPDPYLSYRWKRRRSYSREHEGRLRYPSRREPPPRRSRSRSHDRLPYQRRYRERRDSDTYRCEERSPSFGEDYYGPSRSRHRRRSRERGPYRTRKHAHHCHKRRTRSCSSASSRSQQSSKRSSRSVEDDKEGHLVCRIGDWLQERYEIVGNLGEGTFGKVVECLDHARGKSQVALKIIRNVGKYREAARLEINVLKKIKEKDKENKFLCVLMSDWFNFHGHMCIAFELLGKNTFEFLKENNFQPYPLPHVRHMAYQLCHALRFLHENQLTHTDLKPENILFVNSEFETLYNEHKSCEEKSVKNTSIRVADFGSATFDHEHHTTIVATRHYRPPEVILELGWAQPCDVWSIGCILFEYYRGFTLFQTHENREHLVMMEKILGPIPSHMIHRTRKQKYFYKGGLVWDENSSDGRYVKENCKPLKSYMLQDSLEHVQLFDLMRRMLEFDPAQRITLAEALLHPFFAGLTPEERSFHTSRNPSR

IC50 (CLK1): 134 pM
IC50 (CLK4): 446 pM
IC50 (CLK2): 165 pM
IC50 (CLK3): 5870 pM
IC50 (FLT3): 88 pM
IC50 (BaF3): 513000 pM
IC50 (BaF3 FLT3-ITD): 550 pM
IC50 (BaF3 FLT3-ITD/F691L): 22900 pM
IC50 (BaF3 FLT3-ITD/D835V): 1300 pM
IC50 [2]: 2850 pM
SMILES: CCc1nn(C)c2c1/C=C/c1n[nH]c3ccc(cc13)-c1cnn(C)c1OCCN(C)C2=O [Ex. 6, (17E)-16-ethyl-8,12,14-trimethyl-2,11,12,14-tetrahydro-8H-3,5-ethenotripyrazolo[3,4-f:3′,4′-j:4″,3″-n][1,4]oxazacyclopentadecin-13(10H)-one]
Alternative Splicing Ratio BCLAF1 Ex. 10-12/Ex. 10-11 ([1]; MOLM-13, 30 nM): 1.80
Alternative Splicing Ratio BCLAF1 Ex. 10-12/Ex. 10-11 ([1]; MOLM-13, 100 nM): 5.76
Alternative Splicing Ratio BCLAF1 Ex. 10-12/Ex. 10-11 ([1]; MOLM-13, 300 nM): 6.89
